Assay results reported in patent US20250122221A1 (NANJING ZAIMING PHARMACEUTICAL CO., LTD., priority 2022, published 2025).
pIC50: −log10 of the molar value.

Target: N-terminal active peptide segment (MI-N899) of POLQ with ATPase activity (Homo sapiens (Human), UniProt O75417)
Experiment: POLQ enzyme activity inhibition experiment (ATPase, NADH-coupled, OD 340 nm)
Assay type: biochemical
Conditions: 100 nM POLQ (N), 100 μM ATP, 300 nM dT50
Procedure: The Envision microplate reader from Perkin Elmer Inc was used to measure the reduction of OD value of NADH at 340 nm, thus reflecting the enzyme activity. Experimental method: The POLQ enzyme was diluted to 100 nM with a reaction buffer (20 mM Tris HCl (pH 7.80), 80 mM KCl, 10 mM MgCl2, 1 mM DTT, 0.01% w/v bovine serum albumin, 0.01% v/v Tween-20, and 5% v/v glycerol). The compounds to be tested were diluted to different concentrations in dimethyl sulfoxide (DMSO) using the Echo 650 pipetting system, and transferred to a 384-well plate, 20 μL/well of 100 nM POLQ was added, and the mixture was incubated at room temperature for 15 minutes. A reaction mixture solution was formulated, and the concentration of each component in the reaction mixture solution was: 100 μM ATP, 300 nM […], 300 μM NADH, 6 mM PEP, 10 U/mL lactate dehydrogenase and 20 U/mL pyruvate kinase. 20 μL/well of reaction mixture solution was added to start the enzyme reaction. […] The concentration range was from 10 μM to 0.0005 μM, and the final concentration of DMSO in the system was 0.2% v/v. The 384-well plate was reacted at room temperature for 20 minutes, and then the OD value at 340 nm was read with an Envision microplate reader. The inhibition rate was calculated, and XLfit software was used to perform fitting to obtain IC50 of the compounds. In the experiment, a blank group and a DMSO group were set up, respectively.

Chain of N-terminal active peptide segment (MI-N899) of POLQ with ATPase activity (O75417 1-899 limits assumed): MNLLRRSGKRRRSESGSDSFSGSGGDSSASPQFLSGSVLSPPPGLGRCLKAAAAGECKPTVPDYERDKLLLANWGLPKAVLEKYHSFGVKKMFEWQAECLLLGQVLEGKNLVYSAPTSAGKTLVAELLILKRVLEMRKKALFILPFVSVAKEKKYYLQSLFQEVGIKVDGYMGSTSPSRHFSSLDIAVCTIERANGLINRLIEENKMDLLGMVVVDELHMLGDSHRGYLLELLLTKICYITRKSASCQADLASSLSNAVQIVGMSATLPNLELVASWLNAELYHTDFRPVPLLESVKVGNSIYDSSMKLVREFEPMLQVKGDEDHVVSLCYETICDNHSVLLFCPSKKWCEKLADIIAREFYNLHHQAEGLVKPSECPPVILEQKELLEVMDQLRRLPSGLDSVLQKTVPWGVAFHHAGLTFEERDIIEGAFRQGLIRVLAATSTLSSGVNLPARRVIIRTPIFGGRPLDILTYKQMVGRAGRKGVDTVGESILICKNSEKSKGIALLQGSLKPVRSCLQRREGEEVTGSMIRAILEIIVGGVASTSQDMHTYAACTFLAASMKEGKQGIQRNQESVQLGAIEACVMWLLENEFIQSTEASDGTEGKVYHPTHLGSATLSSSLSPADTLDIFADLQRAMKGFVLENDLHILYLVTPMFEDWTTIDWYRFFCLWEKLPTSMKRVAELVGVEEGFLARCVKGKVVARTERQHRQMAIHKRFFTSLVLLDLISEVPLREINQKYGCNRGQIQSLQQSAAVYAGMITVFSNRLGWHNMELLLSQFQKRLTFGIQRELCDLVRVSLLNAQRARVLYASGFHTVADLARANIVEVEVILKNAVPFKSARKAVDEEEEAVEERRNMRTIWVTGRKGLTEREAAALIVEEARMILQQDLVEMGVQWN

| SMILES | pIC50 |
| --- | --- |
| COc1ccccc1-c1cn2ccnc2cc1C(=O)Nc1nc2ncc(-c3ccc(C#N)cc3)nc2s1 [Compound 41, N-(6-(4-cyanophenyl)thiazolo[4,5-b]pyrazin-2-yl)-6-(2-methoxyphenyl)imidazo[1,2-a]pyridine-7-carboxamide] | > 7.00 |
| C#Cc1ccccc1-c1cc(Cl)ncc1C(=O)Nc1nc2ncc(-c3ccc(C#N)cc3)nc2s1 [Compound 43, 6-chloro-N-(6-(4-cyanophenyl)thiazolo[4,5-b]pyrazin-2-yl)-4-(2-ethynylphenyl)pyridine-3-carboxamide] | > 7.00 |
| COc1ncccc1-c1cc(C)ncc1C(=O)Nc1nc2ncc(-c3ccc(C#N)cc3)nc2s1 [Compound 44, N-(6-(4-cyanophenyl)thiazolo[4,5-b]pyrazin-2-yl)-2-methoxy-6′-methyl-[3,4′-bipyridine]-3′-carboxamide] | > 7.00 |
| COc1cnccc1-c1cc(C)ncc1C(=O)Nc1nc2ncc(-c3ccc(C#N)cc3)nc2s1 [Compound 45, N-(6-(4-cyanophenyl)thiazolo[4,5-b]pyrazin-2-yl)-3′-methoxy-6-methyl-[4,4′-bipyridine]-3-carboxamide] | > 7.00 |
| C#Cc1cc(F)ccc1-c1cc(C)ncc1C(=O)Nc1nc2ncc(-c3ccc(C#N)cc3)nc2s1 [Compound 47, N-(6-(4-cyanophenyl)thiazolo[4,5-b]pyrazin-2-yl)-4-(2-ethynyl-4-fluorophenyl)-6-methylpyridine-3-carboxamide] | > 7.00 |
| C#Cc1cccc(F)c1-c1cc(C)ncc1C(=O)Nc1nc2ncc(-c3ccc(C#N)cc3)nc2s1 [Compound 49, N-(6-(4-cyanophenyl)thiazolo[4,5-b]pyrazin-2-yl)-4-(2-ethynyl-6-fluorophenyl)-6-methylpyridine-3-carboxamide] | > 7.00 |
| COc1ccccc1-c1ncccc1C(=O)Nc1nc2ncc(-c3ccc(C#N)cc3)nc2s1 [Compound 50, N-(6-(4-cyanophenyl)thiazolo[4,5-b]pyrazin-2-yl)-2-(2-methoxyphenyl)pyridine-3-carboxamide] | > 7.00 |
| COc1ccccc1-c1cncnc1C(=O)Nc1nc2ncc(-c3ccc(C#N)cc3)nc2s1 [Compound 52, N-(6-(4-cyanophenyl)thiazolo[4,5-b]pyrazin-2-yl)-5-(2-methoxyphenyl)pyrimidine-4-carboxamide] | > 7.00 |
| COc1ccccc1-c1cnc(C(F)(F)F)cc1C(=O)Nc1nc2ncc(-c3ccc(C#N)cc3)nc2s1 [Compound 53, N-(6-(4-cyanophenyl)thiazolo[4,5-b]pyrazin-2-yl)-5-(2-methoxyphenyl)-2-(trifluoromethyl)pyridine-4-carboxamide] | 6.30 to 7.00 |
| COc1ccccc1-c1cncc(F)c1C(=O)Nc1nc2ncc(-c3ccc(C#N)cc3)nc2s1 [Compound 54, N-(6-(4-cyanophenyl)thiazolo[4,5-b]pyrazin-2-yl)-3-fluoro-5-(2-methoxyphenyl)pyridine-4-carboxamide] | > 7.00 |
| COc1ccccc1-c1ccccc1C(=O)Nc1nc2ncc(-c3ccc(C#N)cc3)nc2s1 [Compound 55, N-(6-(4-cyanophenyl)thiazolo[4,5-b]pyrazin-2-yl)-2′-methoxy-[1,1′-biphenyl]-2-carboxamide] | > 7.00 |
| COc1ccccc1-c1cn2ncnc2cc1C(=O)Nc1nc2ncc(-c3ccc(C#N)cc3)nc2s1 [Compound 57, N-(6-(4-cyanophenyl)thiazolo[4,5-b]pyrazin-2-yl)-6-(2-methoxyphenyl)-[1,2,4]triazolo[1,5-a]pyridine-7-carboxamide] | > 7.00 |
| C#Cc1ccccc1-c1nc(C)ncc1C(=O)Nc1nc2ncc(-c3ccc(C#N)cc3)nc2s1 [Compound 59, N-(6-(4-cyanophenyl)thiazolo[4,5-b]pyrazin-2-yl)-4-(2-ethynylphenyl)-2-methylpyrimidine-5-carboxamide] | > 7.00 |
| C#Cc1ccccc1-c1cc(C)ncc1C(=O)Nc1nc2ncc(-c3ccc(C#N)cc3)cc2s1 [Compound 60, N-(6-(4-cyanophenyl)thiazolo[4,5-b]pyridin-2-yl)-4-(2-ethynylphenyl)-6-methylpyridine-3-carboxamide] | > 7.00 |
| C#Cc1cnc(C)cc1-c1cc(C)ncc1C(=O)Nc1nc2ncc(-c3ccc(C#N)cc3)nc2s1 [Compound 64, N-(6-(4-cyanophenyl)thiazolo[4,5-b]pyrazin-2-yl)-5′-ethynyl-2′,6-dimethyl-[4,4′-bipyridine]-3-carboxamide] | > 7.00 |
| COc1cnc(C#N)cc1-c1cc(C)ncc1C(=O)Nc1nc2ncc(-c3ccc(Cl)cn3)nc2s1 [Compound 65, N-(6-(5-chloropyridin-2-yl)thiazolo[4,5-b]pyrazin-2-yl)-2′-cyano-5′-methoxy-6-methyl-[4,4′-bipyridine]-3-carboxamide] | > 7.00 |
| COc1cnc(C)cc1-c1cc(C)ncc1C(=O)Nc1nc2ncc(-c3ccc(Cl)cn3)nc2s1 [Compound 66, N-(6-(5-chloropyridin-2-yl)thiazolo[4,5-b]pyrazin-2-yl)-5′-methoxy-2′,6-dimethyl-[4,4′-bipyridine]-3-carboxamide] | > 7.00 |
| COc1cnc(C)cc1-c1cc(C)ncc1C(=O)Nc1nc2ncc(-c3ccc(Cl)cc3)nc2s1 [Compound 67, N-(6-(4-chlorophenyl)thiazolo[4,5-b]pyrazin-2-yl)-5′-methoxy-2′,6-dimethyl-[4,4′-bipyridine]-3-carboxamide] | > 7.00 |
| COc1cnc(C)cc1-c1cc(C)ncc1C(=O)Nc1nc2ncc(C3CCOC3)nc2s1 (stereo not shown) [Compound 69-P1, N-(6-(tetrahydrofuran-3-yl)thiazolo[4,5-b]pyrazin-2-yl)-5′-methoxy-2′,6-dimethyl-[4,4′-bipyridine]-3-carboxamide] | > 7.00 |
| COc1cnc(C)cc1-c1cc(C)ncc1C(=O)Nc1nc2ncc(-c3ccc(C#N)cc3F)nc2s1 [Compound 70, N-(6-(4-cyano-2-fluorophenyl)thiazolo[4,5-b]pyrazin-2-yl)-5′-methoxy-2′,6-dimethyl-[4,4′-bipyridine]-3-carboxamide] | > 7.00 |
| COc1ccc(Cl)cc1-c1cc(C)ncc1C(=O)Nc1nc2ncc(-c3ccc(Cl)cn3)nc2s1 [Compound 71, 4-(5-chloro-2-methoxyphenyl)-N-(6-(5-chloropyridin-2-yl)thiazolo[4,5-b]pyrazin-2-yl)-6-methylpyridine-3-carboxamide] | > 7.00 |
| COc1cnc(C)c(F)c1-c1cc(C)ncc1C(=O)Nc1nc2ncc(-c3ccc(C#N)cc3)nc2s1 [Compound 76, N-(6-(4-cyanophenyl)thiazolo[4,5-b]pyrazin-2-yl)-3′-fluoro-5′-methoxy-2′,6-dimethyl-[4,4′-bipyridine]-3-carboxamide] | > 7.00 |
| Cc1cc(-c2cc(Cl)ccc2C(F)(F)F)c(C(=O)Nc2nc3ncc(-c4ccc(C#N)cc4)nc3s2)cn1 [Compound 88, 4-(5-chloro-2-(trifluoromethyl)phenyl)-N-(6-(4-cyanophenyl)thiazolo[4,5-b]pyrazin-2-yl)-6-methylpyridine-3-carboxamide] | > 7.00 |
| Cc1cc(-c2cc(Cl)ccc2OC(F)F)c(C(=O)Nc2nc3ncc(-c4ccc(C#N)cc4)nc3s2)cn1 [Compound 89, 4-(5-chloro-2-(difluoromethoxy)phenyl)-N-(6-(4-cyanophenyl)thiazolo[4,5-b]pyrazin-2-yl)-6-methylpyridine-3-carboxamide] | > 7.00 |
| Cc1cc(-c2cc(Cl)ccc2OC(F)(F)F)c(C(=O)Nc2nc3ncc(-c4ccc(C#N)cc4)nc3s2)cn1 [Compound 90, 4-(5-chloro-2-(trifluoromethoxy)phenyl)-N-(6-(4-cyanophenyl)thiazolo[4,5-b]pyrazin-2-yl)-6-methylpyridine-3-carboxamide] | > 7.00 |
